From patent US20030158094A1, “Combination product of an aryl-substituted propanolamine derivative with at least one other active ingredient and the use of the product” (priority 2001, published 2003)

What was measured:
Format in all cases: in vivo
[1] = tested on: Male Syrian hamsters (Mesocricetus auratus); experiment: Liver cholesterol (HPLC) in cholesterol-fed hamsters, C1 with Caromax; settings: 30 mg/kg/d C1, feed +0.1% CH
Description: (§1) Hamsters were used for the biological testing of the combination product of the invention. Male Syrian hamsters (Mesocricetus auratus) from 8 to 10 weeks of age were used for the experiment. The animals received a standard feed (Teklad 8604M) supplemented with 0.1% cholesterol. An additional normal control group received only standard feed. The test substances were administered orally by gavage once a day on 12 consecutive days, and the control group was treated with the vehicle. Feces were collected on days 5 and 6 of the experiment for bile acid analysis. Retroorbital blood was taken from the animals on day 10 of the experiment, and the lipid levels in the plasma were determined. Radioactive tracers were administered orally to the animals on day 11 of the experiment to determine the cholesterol absorption in analogy to the method described by Zilversmith et al. On day 13 of the experiment, the animals were sacrificed, and the animals' livers were removed for cholesterol analysis and preparation of microsomes. The 7α-hydroxylase activity was determined in the liver microsomes ex vivo by a modified method of Hylemon et al. [table] Liver cholesterol (HPLC)=1×500 mg in EtOH/KOH (sample is also used for CH synthesis)

[2] = tested on: Male Syrian hamsters (Mesocricetus auratus); experiment: Cholesterol absorption (3H-sitosterol/14C-cholesterol, feces) in hamsters, ezetimibe (K00 04513) plus C1; settings: feed +0.1% CH; for CH absorption % of ctr.: normal ctr. = 100.0
Description: as §1, with “[table]” for “[table] Liver cholesterol (HPLC)=1×500 mg in EtOH/KOH (sample is also used for CH synthesis)”

[3] = tested on: Male Syrian hamsters (Mesocricetus auratus); experiment: Plasma lipids in cholesterol-fed hamsters, ezetimibe (K00 04513) plus C1; settings: feed +0.1% CH; for HDL % / Plasma parameter Cholesterol % / Plasma parameter LDL % / Plasma parameter Triglycerides %: cholesterol ctr. = 100
Description: as §1, with “[table]” for “[table] Liver cholesterol (HPLC)=1×500 mg in EtOH/KOH (sample is also used for CH synthesis)”

[4] = tested on: Male Syrian hamsters (Mesocricetus auratus); experiment: Liver cholesterol (HPLC) in cholesterol-fed hamsters, ezetimibe (K00 04513) plus C1; settings: feed +0.1% CH; for Liver Cholesterol %: cholesterol ctr. = 100
Description: as §1, with “[table]” for “[table] Liver cholesterol (HPLC)=1×500 mg in EtOH/KOH (sample is also used for CH synthesis)”

[5] = tested on: Male Syrian hamsters (Mesocricetus auratus); experiment: Plasma lipids in cholesterol-fed hamsters, combination of compound C1 with Caromax; settings: 30 mg/kg/d C1, feed +0.1% CH
Description: as §1, with “Male Syrian hamsters (Mesocricetus auratus) supplied by Harlan 80-100 g at the start of adaptation Safety parameters (CH; TG; ALAT/ASAT; AP; HDL/LDL) Preliminary value and 2 days before end of the experiment (isoflurane anesthesia) by retroorbital blood sampling” for “Liver cholesterol (HPLC)=1×500 mg in EtOH/KOH (sample is also used for CH synthesis)”

[6] = tested on: Male Syrian hamsters (Mesocricetus auratus); experiment: Liver cholesterol synthesis (14C-octanoate i.v.) in cholesterol-fed hamsters, C1 with Caromax; settings: 30 mg/kg/d C1, feed +0.1% CH
Description: Hamsters were used for the biological testing of the combination product of the invention. Male Syrian hamsters (Mesocricetus auratus) from 8 to 10 weeks of age were used for the experiment. The animals received a standard feed (Teklad 8604M) supplemented with 0.1% cholesterol. An additional normal control group received only standard feed. The test substances were administered orally by gavage once a day on 12 consecutive days, and the control group was treated with the vehicle. [table] Cholesterol Synthesis i.v. administration of ^14C-octanoate 10 μCi/100 g of animal 1 hour before the end of the experiment (isoflurane anesthesia) Removal of 2×500 mg of liver in EtOH/KOH

[7] = group 3, 0.1 mg/kg/d K 00 04513
[8] = group 4, 0.3 mg/kg/d K 00 04513

O=C(CCCCCCCCCCNC(=O)[C@H](O)[C@@H](O)[C@H](O)[C@H](O)CO)Nc1ccccc1[C@@H](Nc1ccccn1)[C@H](c1ccccn1)[C@H](O)c1ccccc1 [C1]
Liver Cholesterol [1]: 14.72 mg/g
Liver Cholesterol % ([1]; hyperlip. ctr. = 100): 54%
CH absorption % absorption ([2]; group 6, 3 mg/kg/d C1): 39.6%
CH absorption % of ctr. ([2]; group 6, 3 mg/kg/d C1): ±80.9%
CH absorption % absorption ([2]; group 7, 10 mg/kg/d C1): 49.1%
CH absorption % of ctr. ([2]; group 7, 10 mg/kg/d C1): ±100.1%
CH absorption % absorption ([2]; group 8, 30 mg/kg/d C1): 38.3%
CH absorption % of ctr. ([2]; group 8, 30 mg/kg/d C1): ±78.2%
HDL ([3]; group 6, 3 mg/kg/d C1): 2.20 mmol/L
Plasma parameter Cholesterol ([3]; group 6, 3 mg/kg/d C1): 3.92 mmol/L
Plasma parameter LDL ([3]; group 6, 3 mg/kg/d C1): 0.98 mmol/L
Plasma parameter Triglycerides ([3]; group 6, 3 mg/kg/d C1): 1.84 mmol/L
HDL % ([3]; group 6, 3 mg/kg/d C1): 102%
Plasma parameter Cholesterol % ([3]; group 6, 3 mg/kg/d C1): 96%
Plasma parameter LDL % ([3]; group 6, 3 mg/kg/d C1): 87%
Plasma parameter Triglycerides % ([3]; group 6, 3 mg/kg/d C1): 90%
HDL ([3]; group 7, 10 mg/kg/d C1): 2.00 mmol/L
Plasma parameter Cholesterol ([3]; group 7, 10 mg/kg/d C1): 3.70 mmol/L
Plasma parameter LDL ([3]; group 7, 10 mg/kg/d C1): 0.78 mmol/L
Plasma parameter Triglycerides ([3]; group 7, 10 mg/kg/d C1): 2.35 mmol/L
HDL % ([3]; group 7, 10 mg/kg/d C1): 93%
Plasma parameter Cholesterol % ([3]; group 7, 10 mg/kg/d C1): 90%
Plasma parameter LDL % ([3]; group 7, 10 mg/kg/d C1): 69%
Plasma parameter Triglycerides % ([3]; group 7, 10 mg/kg/d C1): 116%
HDL ([3]; group 8, 30 mg/kg/d C1): 2.02 mmol/L
Plasma parameter Cholesterol ([3]; group 8, 30 mg/kg/d C1): 3.66 mmol/L
Plasma parameter LDL ([3]; group 8, 30 mg/kg/d C1): 0.80 mmol/L
Plasma parameter Triglycerides ([3]; group 8, 30 mg/kg/d C1): 2.02 mmol/L
HDL % ([3]; group 8, 30 mg/kg/d C1): 94%
Plasma parameter Cholesterol % ([3]; group 8, 30 mg/kg/d C1): 89%
Plasma parameter LDL % ([3]; group 8, 30 mg/kg/d C1): 71%
Plasma parameter Triglycerides % ([3]; group 8, 30 mg/kg/d C1): 99%
Liver Cholesterol ([4]; group 6, 3 mg/kg/d C1): 10.99 mg/g
Liver Cholesterol % ([4]; group 6, 3 mg/kg/d C1): 100%
Liver Cholesterol ([4]; group 7, 10 mg/kg/d C1): 9.50 mg/g
Liver Cholesterol % ([4]; group 7, 10 mg/kg/d C1): 86%
Liver Cholesterol ([4]; group 8, 30 mg/kg/d C1): 7.18 mg/g
Liver Cholesterol % ([4]; group 8, 30 mg/kg/d C1): 65%
Cholesterol [5]: 3.58 mmol/L
HDL-cholesterol [5]: 2.42 mmol/L
LDL-cholesterol [5]: 0.88 mmol/L
Triglycerides [5]: 1.49 mmol/L
Cholesterol % ([5]; hyperlip. ctr. = 100): 89%
HDL-cholesterol % ([5]; hyperlip. ctr. = 100): 96%
LDL-cholesterol % ([5]; hyperlip. ctr. = 100): 75%
Triglycerides % ([5]; hyperlip. ctr. = 100): 102%
Liver Sterol biosynthesis [6]: 73 dpm/g/h
Liver Sterol biosynthesis % ([6]; normal ctr. I = 100): 18%

O=C1[C@H](CC[C@H](O)c2ccc(F)cc2)[C@@H](c2ccc(O)cc2)N1c1ccc(F)cc1 [K 00 04513, ezetimibe, reference compound]
CH absorption % absorption [2, 7]: 47.4%
CH absorption % of ctr. [2, 7]: ±96.8%
CH absorption % absorption [2, 8]: 15.6%
CH absorption % of ctr. [2, 8]: ±31.8%
CH absorption % absorption ([2]; group 5, 1 mg/kg/d K 00 04513): 5.8%
CH absorption % of ctr. ([2]; group 5, 1 mg/kg/d K 00 04513): ±11.9%
HDL [3, 7]: 1.98 mmol/L
Plasma parameter Cholesterol [3, 7]: 3.73 mmol/L
Plasma parameter LDL [3, 7]: 1.06 mmol/L
Plasma parameter Triglycerides [3, 7]: 1.99 mmol/L
HDL % [3, 7]: 92%
Plasma parameter Cholesterol % [3, 7]: 91%
Plasma parameter LDL % [3, 7]: 94%
Plasma parameter Triglycerides % [3, 7]: 98%
HDL [3, 8]: 1.92 mmol/L
Plasma parameter Cholesterol [3, 8]: 2.99 mmol/L
Plasma parameter LDL [3, 8]: 0.40 mmol/L
Plasma parameter Triglycerides [3, 8]: 1.87 mmol/L
HDL % [3, 8]: 89%
Plasma parameter Cholesterol % [3, 8]: 73%
Plasma parameter LDL % [3, 8]: 35%
Plasma parameter Triglycerides % [3, 8]: 92%
HDL ([3]; group 5, 1 mg/kg/d K 00 04513): 1.71 mmol/L
Plasma parameter Cholesterol ([3]; group 5, 1 mg/kg/d K 00 04513): 2.53 mmol/L
Plasma parameter LDL ([3]; group 5, 1 mg/kg/d K 00 04513): 0.23 mmol/L
Plasma parameter Triglycerides ([3]; group 5, 1 mg/kg/d K 00 04513): 1.79 mmol/L
HDL % ([3]; group 5, 1 mg/kg/d K 00 04513): 80%
Plasma parameter Cholesterol % ([3]; group 5, 1 mg/kg/d K 00 04513): 62%
Plasma parameter LDL % ([3]; group 5, 1 mg/kg/d K 00 04513): 20%
Plasma parameter Triglycerides % ([3]; group 5, 1 mg/kg/d K 00 04513): 88%
Liver Cholesterol [4, 7]: 11.52 mg/g
Liver Cholesterol % [4, 7]: 105%
Liver Cholesterol [4, 8]: 2.00 mg/g
Liver Cholesterol % [4, 8]: 18%
Liver Cholesterol ([4]; group 5, 1 mg/kg/d K 00 04513): 1.78 mg/g
Liver Cholesterol % ([4]; group 5, 1 mg/kg/d K 00 04513): 16%
